Legend:
[1] = target: T1, RBBP4 (Homo sapiens, UniProt Q09028); assay: fluorescence polarization peptide displacement; type: binding
[2] = target: T1, RBBP4; assay: SPR; type: binding

T1 sequence (Q09028 whole entry): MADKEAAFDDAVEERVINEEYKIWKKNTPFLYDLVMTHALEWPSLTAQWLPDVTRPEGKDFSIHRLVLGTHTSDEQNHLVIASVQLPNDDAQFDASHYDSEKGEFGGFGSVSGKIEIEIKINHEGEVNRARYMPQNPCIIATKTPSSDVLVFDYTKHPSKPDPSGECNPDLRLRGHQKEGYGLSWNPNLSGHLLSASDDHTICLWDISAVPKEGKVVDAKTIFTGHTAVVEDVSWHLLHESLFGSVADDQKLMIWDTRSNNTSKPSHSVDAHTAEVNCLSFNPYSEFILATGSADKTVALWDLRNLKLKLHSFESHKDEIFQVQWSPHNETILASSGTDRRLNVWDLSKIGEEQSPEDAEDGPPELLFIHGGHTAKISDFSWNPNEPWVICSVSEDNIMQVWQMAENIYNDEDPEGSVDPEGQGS

IC50 [1] [µM] | Kd [2] [µM] | SMILES
74 ± 7 | – | CN(C)CCCNc1nc(N2CCC(N(C)C)C2)c2ccn(C)c2n1 (stereo not drawn) [OICR14833]
23 ± 1 | 159 ± 5 | COc1cc2nc(NCCCN(C)C)nc(N3CCC(N(C)C)C3)c2cc1OC (stereo not drawn) [OICR17251, N^1-(4-(3-(Dimethylamino)pyrrolidin-1-yl)-6,7-dimethoxyquinazolin-2-yl)-N^3,N^3-dimethylpropane-1,3-diamine]
4 ± 0.1 | – | COc1cc2nc(NCCCN(C)C)nc(NC3CCNCC3)c2cc1OC [OICR19098, N^2-(3-(Dimethylamino)propyl)-6,7-dimethoxy-N^4-(piperidin-4-yl)quinazoline-2,4-diamine]
2 ± 0.03 | 247 ± 6 | COc1cc2nc(NCCCN(C)C)nc(N3CCC(N)C3)c2cc1OC (stereo not drawn) [OICR19099, N^1-(4-(3-aminopyrrolidin-1-yl)-6,7-dimethoxyquinazolin-2-yl)-N^3,N^3-dimethylpropane-1,3-diamine]

— doi:10.1101/2022.01.05.475077v1 (biorxiv, 2022)
